Measurements published in PubChem BioAssay AID248 (DTP/NCI, 2004).
Values joined by “and” are separate entries in the source; they are usually repeats but may differ in a detail not shown here. Equal values may be shown once. Inconclusive results and toxic doses are left out. Cut-off read from the data, not from the text of the source: active = T/C of 150% or more; inactive = T/C below 125%.

Tested on: L1210 leukemia ip in BDF1 mice, survival T/C
Assay: NCI In Vivo Anticancer Drug Screen. Data for tumor model L1210 Leukemia (intraperitoneal) in B6D2F1 (BDF1) mice
Conditions: endpoint: mean survival time, higher = longer survival
Procedure, shortened: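 Antitumor effect is assessed in tumor-bearing animals. Survival in the compound arm is compared with a vehicle-dosed control arm and expressed as their quotient.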

[1] = dose: 100.0 mg/kg/injection, schedule: Q01DX001 (ip), vehicle: saline
[2] = dose: 200.0 mg/kg/injection, schedule: Q01DX001 (ip), vehicle: saline
[3] = dose: 400.0 mg/kg/injection, schedule: Q01DX001 (ip), vehicle: saline
[4] = dose: 25.0 mg/kg/injection, schedule: Q01DX009 (ip), vehicle: Klucel (hydroxypropylcellulose) (HPC)
[5] = dose: 25.0 mg/kg/injection, schedule: Q04DX003 (ip), vehicle: Klucel (hydroxypropylcellulose) (HPC)
[6] = dose: 50.0 mg/kg/injection, schedule: Q04DX003 (ip), vehicle: Klucel (hydroxypropylcellulose) (HPC)
[7] = dose: 100.0 mg/kg/injection, schedule: Q01DX009 (ip), vehicle: Klucel (hydroxypropylcellulose) (HPC)
[8] = dose: 100.0 mg/kg/injection, schedule: Q04DX003 (ip), vehicle: Klucel (hydroxypropylcellulose) (HPC)
[9] = dose: 200.0 mg/kg/injection, schedule: Q01DX009 (ip), vehicle: Klucel (hydroxypropylcellulose) (HPC)
[10] = dose: 200.0 mg/kg/injection, schedule: Q04DX003 (ip), vehicle: Klucel (hydroxypropylcellulose) (HPC)
[11] = dose: 400.0 mg/kg/injection, schedule: Q01DX009 (ip), vehicle: Klucel (hydroxypropylcellulose) (HPC)
[12] = dose: 400.0 mg/kg/injection, schedule: Q04DX003 (ip), vehicle: Klucel (hydroxypropylcellulose) (HPC)
[13] = dose: 100.0 mg/kg/injection, schedule: Q01DX009 (ip), vehicle: saline with Tween-80
[14] = dose: 200.0 mg/kg/injection, schedule: Q01DX009 (ip), vehicle: saline with Tween-80
[15] = dose: 400.0 mg/kg/injection, schedule: Q01DX009 (ip), vehicle: saline with Tween-80
[16] = dose: 100.0 mg/kg/injection, schedule: Q04DX003 (ip), vehicle: saline with Tween-80
[17] = dose: 200.0 mg/kg/injection, schedule: Q04DX003 (ip), vehicle: saline with Tween-80
[18] = dose: 400.0 mg/kg/injection, schedule: Q04DX003 (ip), vehicle: saline with Tween-80
[19] = dose: 50.0 mg/kg/injection, schedule: Q01DX001 (ip), vehicle: carboxymethylcellulose (CMC)
[20] = dose: 100.0 mg/kg/injection, schedule: Q01DX001 (ip), vehicle: carboxymethylcellulose (CMC)
[21] = dose: 200.0 mg/kg/injection, schedule: Q01DX001 (ip), vehicle: carboxymethylcellulose (CMC)
[22] = dose: 100.0 mg/kg/injection, schedule: Q01DX001 (ip), vehicle: saline with Tween-80
[23] = dose: 200.0 mg/kg/injection, schedule: Q01DX001 (ip), vehicle: saline with Tween-80
[24] = dose: 400.0 mg/kg/injection, schedule: Q01DX001 (ip), vehicle: saline with Tween-80
[25] = dose: 50.0 mg/kg/injection, schedule: Q01DX001 (ip), vehicle: saline
[26] = dose: 100.0 mg/kg/injection, schedule: Q04DX002 (ip), vehicle: saline with Tween-80
[27] = dose: 200.0 mg/kg/injection, schedule: Q04DX002 (ip), vehicle: saline with Tween-80
[28] = dose: 400.0 mg/kg/injection, schedule: Q04DX002 (ip), vehicle: saline with Tween-80

Measured: T/C

Cn1c(O)c(N=NC(=O)Cc2c[nH]c3ccccc23)c2ccccc21
inactive: dose: 100.0 mg/kg/injection, schedule: Q01DX001 (ip), vehicle: other 101 % of control | dose: 200.0 mg/kg/injection, schedule: Q01DX001 (ip), vehicle: other 95 % of control | dose: 400.0 mg/kg/injection, schedule: Q01DX001 (ip), vehicle: other 95 % of control

O=C1C2CCCCC2C(=O)N1O (stereo not drawn)
inactive: [1] 94 % of control | dose: 100.0 mg/kg/injection, schedule: Q04DX003 (ip), vehicle: saline 102 % of control | [2] 92 % of control | dose: 200.0 mg/kg/injection, schedule: Q04DX003 (ip), vehicle: saline 96 % of control | [3] 94 % of control | dose: 400.0 mg/kg/injection, schedule: Q04DX003 (ip), vehicle: saline 103 % of control

O=[N+]([O-])/C=C/C=C/c1ccco1
inactive: dose: 6.25 mg/kg/injection, schedule: Q04DX002 (ip), vehicle: saline with Tween-80 97 % of control | dose: 12.5 mg/kg/injection, schedule: Q04DX002 (ip), vehicle: saline with Tween-80 101 % of control | dose: 25.0 mg/kg/injection, schedule: Q04DX002 (ip), vehicle: saline with Tween-80 97 % of control and 90 % of control

CCOC(=O)CCC(C)=O
inactive: dose: 100.0 mg/kg/injection, schedule: Q01DX009 (ip), vehicle: saline 102 % of control | dose: 200.0 mg/kg/injection, schedule: Q01DX009 (ip), vehicle: saline 96 % of control | dose: 400.0 mg/kg/injection, schedule: Q01DX009 (ip), vehicle: saline 96 % of control

COc1ccc(CCN2CC(=O)NC(=O)C2)cc1OC
inactive: [4] 95 % of control | [5] 104 % of control | dose: 50.0 mg/kg/injection, schedule: Q01DX009 (ip), vehicle: Klucel (hydroxypropylcellulose) (HPC) 96 % of control | [6] 104 % of control | [7] 101 % of control | [8] 101 % of control | [9] 101 % of control | [10] 101 % of control | [11] 101 % of control | [12] 109 % of control

CCCCCCC(O)CCCC (stereo not drawn)
inactive: [13] 117 % of control | [8] 91 % of control | [14] 110 % of control | [10] 88 % of control | [15] 122 % of control | [12] 88 % of control

Cc1ccc(NC(=O)N(C)N)cc1
inactive: dose: 75.0 mg/kg/injection, schedule: Q01DX001 (ip), vehicle: carboxymethylcellulose (CMC) 102 % of control | dose: 150.0 mg/kg/injection, schedule: Q01DX001 (ip), vehicle: carboxymethylcellulose (CMC) 104 % of control

Cn1c(=S)sc2ccccc21
inactive: dose: 25.0 mg/kg/injection, schedule: Q04DX003 (ip), vehicle: saline with Tween-80 97 % of control | dose: 50.0 mg/kg/injection, schedule: Q04DX003 (ip), vehicle: saline with Tween-80 97 % of control | [8] 107 % of control

CCOC(=O)C1=C(C)NC(C)=C(C(C)=O)C1c1ccnc2ccccc12 (stereo not drawn)
inactive: [13] 98 % of control | [16] 95 % of control | [14] 102 % of control | [17] 92 % of control | [15] 100 % of control | [18] 100 % of control

CCC(C)(NC(N)=O)c1ccccc1 (stereo not drawn)
inactive: [1] 101 % of control | [2] 104 % of control

OC1(c2ccccc2)CCN(Cc2ccccc2)CC1
inactive: dose: 25.0 mg/kg/injection, schedule: Q01DX001 (ip), vehicle: Klucel (hydroxypropylcellulose) (HPC) 106 % of control | dose: 50.0 mg/kg/injection, schedule: Q01DX001 (ip), vehicle: Klucel (hydroxypropylcellulose) (HPC) 118 % of control | dose: 100.0 mg/kg/injection, schedule: Q01DX001 (ip), vehicle: Klucel (hydroxypropylcellulose) (HPC) 93 % of control and 107 % of control

COC1(OC)C2(Cl)C(Cl)=C(Cl)C1(Cl)C1C2CS1(=O)=O (stereo not drawn)
inactive: [19] 100 % of control | [20] 92 % of control | [21] 100 % of control | dose: 400.0 mg/kg/injection, schedule: Q01DX001 (ip), vehicle: carboxymethylcellulose (CMC) 89 % of control

Cc1ccc(C(=O)/C=C\c2ccccc2)cc1
inactive: [13] 110 % of control | [16] 103 % of control | [14] 97 % of control | [17] 98 % of control | [15] 97 % of control | [18] 92 % of control

Cc1ccc(S(=O)(=O)N/N=C/c2ccc(O)cc2)cc1
inactive: dose: 87.5 mg/kg/injection, schedule: Q04DX003 (ip), vehicle: Klucel (hydroxypropylcellulose) (HPC) 97 % of control | dose: 175.0 mg/kg/injection, schedule: Q04DX003 (ip), vehicle: Klucel (hydroxypropylcellulose) (HPC) 105 % of control | dose: 350.0 mg/kg/injection, schedule: Q04DX003 (ip), vehicle: Klucel (hydroxypropylcellulose) (HPC) 103 % of control

O=c1oc(-c2ccccc2)c(-c2ccccc2)c(-c2ccccc2)c1-c1ccccc1
inactive: [22] 103 % of control | [23] 91 % of control | [24] 91 % of control

CC(=O)OCC1OC(COC(C)=O)(c2ccc(C)cc2)C(OC(C)=O)C1OC(C)=O (stereo not drawn)
inactive: [25] 97 % of control | [1] 103 % of control | [2] 94 % of control | [3] 100 % of control

COc1ccc(OC)c(NC(=O)c2ccc(Cl)cc2)c1
inactive: [22] 101 % of control | [13] 97 % of control | [26] 104 % of control and 110 % of control | [16] 94 % of control | [23] 97 % of control | [14] 95 % of control and 97 % of control | [27] 104 % of control and 92 % of control | [17] 97 % of control | [24] 95 % of control | [15] 102 % of control and 124 % of control | [28] 94 % of control and 108 % of control | [18] 95 % of control

NC1CCC(CC2CCCC2)CC1 (stereo not drawn)
inactive: [5] 96 % of control | [6] 93 % of control | [8] 104 % of control and 90 % of control

O=[N+]([O-])c1ccc(OCCBr)c(Cl)c1
inactive: [8] 92 % of control | [10] 97 % of control | [12] 96 % of control

CCOC(=O)/C(C(=O)c1ccccc1)=C(\OC(=O)c1ccccc1)c1ccccc1
inactive: [19] 96 % of control | [20] 102 % of control | [21] 91 % of control

Cc1cccc(C[Si](C)C)c1
inactive: [1] 95 % of control and 104 % of control | [2] 124 % of control | [3] 93 % of control and 98 % of control

CCC(CC=C(C)C)(CC=C(C)C)c1ccncc1 (tested in a mixture with another compound)
inactive: [1] 97 % of control | [2] 102 % of control | [3] 97 % of control

CN(C)c1ncnc2c1nnn2C1OC(CO)C(O)C1O (stereo not drawn)
inactive: dose: 178.0 mg/kg/injection, schedule: Q01DX001 (ip), vehicle: saline 106 % of control | dose: 267.0 mg/kg/injection, schedule: Q01DX001 (ip), vehicle: saline 106 % of control | [3] 117 % of control

O=C1NC(=O)C2CCCCC12 (stereo not drawn)
inactive: [26] 90 % of control | [16] 96 % of control | [27] 121 % of control | [17] 104 % of control | [28] 107 % of control | [18] 104 % of control

NC(=O)NC1CC(c2ccccc2)C(O)(c2ccccc2)C1 (stereo not drawn)
inactive: [25] 86 % of control | [1] 92 % of control | [2] 90 % of control

CCCCNS(=O)(=O)c1ccc(OC)c(N)c1
inactive: [7] 98 % of control | [9] 104 % of control | [11] 97 % of control

Cc1ccc(-n2cnc3c(=O)[nH]cnc32)cc1
inactive: [1] 98 % of control | [2] 93 % of control | [3] 93 % of control

COc1cc(N=O)c(C(=O)c2nccc3cc(OC)c(OC)cc23)cc1OC
inactive: [1] 104 % of control | [2] 91 % of control | [3] 94 % of control

CC(C)=CCN(CC=C(C)C)CCC(CC=C(C)C)(C(N)=O)c1cccc2ccccc12 (stereo not drawn)
inactive: dose: 6.25 mg/kg/injection, schedule: Q01DX009 (ip), vehicle: Klucel (hydroxypropylcellulose) (HPC) 89 % of control | dose: 12.5 mg/kg/injection, schedule: Q01DX009 (ip), vehicle: Klucel (hydroxypropylcellulose) (HPC) 101 % of control | [4] 89 % of control
